Laboratory results reported in PubChem BioAssay (NCI).
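Cultured in 96-well plates, cells were exposed to test compound for 48 hours across five concentrations. Abbreviation: GI50, concentration required for 50% inhibition of growth. TGI: total growth inhibition.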

Tests used:
Assay in all cases: growth of human tumour cells (NCI), 48 h
786-0 renal = test system: 786-0 renal
A498 renal = test system: A498 renal
A549 NSCLC = test system: A549 NSCLC
ACHN renal = test system: ACHN renal
BT-549 breast = test system: BT-549 breast
CAKI-1 renal = test system: CAKI-1 renal
CCRF-CEM leukemia = test system: CCRF-CEM leukemia
COLO 205 colon = test system: COLO 205 colon
DU-145 prostate = test system: DU-145 prostate
EKVX NSCLC = test system: EKVX NSCLC
HCC-2998 colon = test system: HCC-2998 colon
HCT-116 colon = test system: HCT-116 colon
HCT-15 colon = test system: HCT-15 colon
HL-60(TB) leukemia = test system: HL-60(TB) leukemia
HOP-62 NSCLC = test system: HOP-62 NSCLC
HOP-92 NSCLC = test system: HOP-92 NSCLC
HS 578T breast = test system: HS 578T breast
HT29 colon = test system: HT29 colon
IGROV1 ovarian = test system: IGROV1 ovarian
K-562 leukemia = test system: K-562 leukemia
KM12 colon = test system: KM12 colon
LOX IMVI melanoma = test system: LOX IMVI melanoma
M14 melanoma = test system: M14 melanoma
MALME-3M melanoma = test system: MALME-3M melanoma
MCF7 breast = test system: MCF7 breast
MDA-MB-231 breast = test system: MDA-MB-231 breast
MDA-MB-435 = test system: MDA-MB-435
MOLT-4 leukemia = test system: MOLT-4 leukemia
NCI-H226 lung = test system: NCI-H226 lung
NCI-H23 lung = test system: NCI-H23 lung
NCI-H460 lung = test system: NCI-H460 lung
NCI-H522 lung = test system: NCI-H522 lung
NCI/ADR-RES ovarian = test system: NCI/ADR-RES ovarian
OVCAR-3 ovarian = test system: OVCAR-3 ovarian
OVCAR-4 ovarian = test system: OVCAR-4 ovarian
OVCAR-5 ovarian = test system: OVCAR-5 ovarian
OVCAR-8 ovarian = test system: OVCAR-8 ovarian
PC-3 prostate = test system: PC-3 prostate
RPMI-8226 leukemia = test system: RPMI-8226 leukemia
RXF 393 renal = test system: RXF 393 renal
SF-268 CNS = test system: SF-268 CNS
SF-295 CNS = test system: SF-295 CNS
SF-539 CNS = test system: SF-539 CNS
SK-MEL-2 melanoma = test system: SK-MEL-2 melanoma
SK-MEL-28 melanoma = test system: SK-MEL-28 melanoma
SK-MEL-5 melanoma = test system: SK-MEL-5 melanoma
SK-OV-3 ovarian = test system: SK-OV-3 ovarian
SN12C renal = test system: SN12C renal
SNB-19 CNS = test system: SNB-19 CNS
SNB-75 CNS = test system: SNB-75 CNS
SR leukemia = test system: SR leukemia
SW-620 colon = test system: SW-620 colon
T-47D breast = test system: T-47D breast
TK-10 renal = test system: TK-10 renal
U251 CNS = test system: U251 CNS
UACC-257 melanoma = test system: UACC-257 melanoma
UACC-62 melanoma = test system: UACC-62 melanoma
UO-31 renal = test system: UO-31 renal

CN1CCN(c2ccc3nc(-c4c5cccccc-5[nH]c4=O)[nH]c3c2)CC1
GI50 (786-0 renal): 11.2 µM
TGI (786-0 renal): 46.6 µM
GI50 (A498 renal): 4.77 µM
TGI (A498 renal): 21.4 µM
GI50 (A549 NSCLC): 7.58 µM
TGI (A549 NSCLC): > 59.3 µM
GI50 (ACHN renal): 6.09 µM
TGI (ACHN renal): 60.9 µM
GI50 (BT-549 breast): 13.4 µM
TGI (BT-549 breast): 66 µM
GI50 (CAKI-1 renal): 7.29 µM
TGI (CAKI-1 renal): > 62.1 µM
GI50 (CCRF-CEM leukemia): 10.1 µM
TGI (CCRF-CEM leukemia): > 84.1 µM
GI50 (COLO 205 colon): 8.39 µM
TGI (COLO 205 colon): 22.2 µM
GI50 (DU-145 prostate): 9.67 µM
TGI (DU-145 prostate): 35.8 µM
GI50 (EKVX NSCLC): 29.4 µM
TGI (EKVX NSCLC): > 100 µM
GI50 (HCC-2998 colon): 13.7 µM
TGI (HCC-2998 colon): 37 µM
GI50 (HCT-116 colon): 9.55 µM
TGI (HCT-116 colon): 25.5 µM
GI50 (HCT-15 colon): 11.5 µM
TGI (HCT-15 colon): 55.9 µM
GI50 (HL-60(TB) leukemia): 13.7 µM
TGI (HL-60(TB) leukemia): 33.5 µM
GI50 (HOP-62 NSCLC): 10.5 µM
TGI (HOP-62 NSCLC): 54.7 µM
GI50 (HOP-92 NSCLC): 18 µM
TGI (HOP-92 NSCLC): > 100 µM
GI50 (HS 578T breast): 13 µM
TGI (HS 578T breast): > 100 µM
GI50 (HT29 colon): 8 µM
TGI (HT29 colon): 23.1 µM
GI50 (IGROV1 ovarian): 5.27 µM
TGI (IGROV1 ovarian): 45.5 µM
GI50 (K-562 leukemia): 10.6 µM
TGI (K-562 leukemia): 53.4 µM
GI50 (KM12 colon): 0.266 µM
TGI (KM12 colon): 13.9 µM
GI50 (LOX IMVI melanoma): 7.78 µM
TGI (LOX IMVI melanoma): 22.4 µM
GI50 (M14 melanoma): 13.3 µM
TGI (M14 melanoma): 27.8 µM
GI50 (MALME-3M melanoma): 14.6 µM
TGI (MALME-3M melanoma): 31 µM
GI50 (MCF7 breast): 6.27 µM
TGI (MCF7 breast): 32.1 µM
GI50 (MDA-MB-231 breast): 11.8 µM
TGI (MDA-MB-231 breast): 36.7 µM
GI50 (MDA-MB-435): 14.3 µM
TGI (MDA-MB-435): 29.7 µM
GI50 (MOLT-4 leukemia): 3.49 µM
TGI (MOLT-4 leukemia): 22.3 µM
GI50 (NCI-H226 lung): 7.18 µM
TGI (NCI-H226 lung): 55.9 µM
GI50 (NCI-H23 lung): 13.9 µM
TGI (NCI-H23 lung): 51.7 µM
GI50 (NCI-H460 lung): 5.45 µM
TGI (NCI-H460 lung): 27.2 µM
GI50 (NCI-H522 lung): 15.6 µM
TGI (NCI-H522 lung): > 46.8 µM
GI50 (NCI/ADR-RES ovarian): 23.4 µM
TGI (NCI/ADR-RES ovarian): 97.4 µM
GI50 (OVCAR-3 ovarian): 17.2 µM
TGI (OVCAR-3 ovarian): 58.2 µM
GI50 (OVCAR-4 ovarian): 13.9 µM
TGI (OVCAR-4 ovarian): 55.2 µM
GI50 (OVCAR-5 ovarian): 15.9 µM
TGI (OVCAR-5 ovarian): 52.1 µM
GI50 (OVCAR-8 ovarian): 11.3 µM
TGI (OVCAR-8 ovarian): > 72.2 µM
GI50 (PC-3 prostate): 17.4 µM
TGI (PC-3 prostate): > 100 µM
GI50 (RPMI-8226 leukemia): 16.8 µM
TGI (RPMI-8226 leukemia): 62.4 µM
GI50 (RXF 393 renal): 3.39 µM
TGI (RXF 393 renal): 15.8 µM
GI50 (SF-268 CNS): 11.9 µM
TGI (SF-268 CNS): 40.3 µM
GI50 (SF-295 CNS): 20.3 µM
TGI (SF-295 CNS): > 76.5 µM
GI50 (SF-539 CNS): 10.1 µM
TGI (SF-539 CNS): 22.8 µM
GI50 (SK-MEL-2 melanoma): 27.1 µM
TGI (SK-MEL-2 melanoma): > 66.9 µM
GI50 (SK-MEL-28 melanoma): 15.6 µM
TGI (SK-MEL-28 melanoma): 30.3 µM
GI50 (SK-MEL-5 melanoma): 14.8 µM
TGI (SK-MEL-5 melanoma): 28.3 µM
GI50 (SK-OV-3 ovarian): 9.43 µM
TGI (SK-OV-3 ovarian): 83.1 µM
GI50 (SN12C renal): 5.37 µM
TGI (SN12C renal): > 80.9 µM
GI50 (SNB-19 CNS): 12.3 µM
TGI (SNB-19 CNS): 71.6 µM
GI50 (SNB-75 CNS): 7.64 µM
TGI (SNB-75 CNS): > 45.2 µM
GI50 (SR leukemia): 12.7 µM
TGI (SR leukemia): 49.5 µM
GI50 (SW-620 colon): 5.79 µM
TGI (SW-620 colon): 43.7 µM
GI50 (T-47D breast): 30.8 µM
TGI (T-47D breast): > 91.7 µM
GI50 (TK-10 renal): 27.9 µM
TGI (TK-10 renal): > 74.5 µM
GI50 (U251 CNS): 11.6 µM
TGI (U251 CNS): 41 µM
GI50 (UACC-257 melanoma): 17.6 µM
TGI (UACC-257 melanoma): 35.3 µM
GI50 (UACC-62 melanoma): 19.6 µM
TGI (UACC-62 melanoma): 43.4 µM
GI50 (UO-31 renal): 3.53 µM
TGI (UO-31 renal): 52.9 µM
